Our source for the IC50 values is BindingDB's records for PubMed 35239336 (Pharmaron Beijing Co., Ltd., 2022).

A word on the IC50: it is the point on the concentration scale where inhibition reaches its midpoint. Read a high IC50 as lower potency.

A short description of this data set: Inhibition of MK-499 binding to hERG. In general terms: Block of hERG is tested as a sign of cardiac risk.
`O=C(Nc1ccc(F)cc1)C1(c2ccc(-c3ccc(C4CC4)nc3)cc2)COC1` displayed a half-inhibitory concentration (IC50) of 13.5 µM. The value for `Cc1cc(C2CC2)ncc1-c1ccc(C2(C(=O)Nc3ccc(F)cc3)COC2)cc1` was 15.9 µM; that for `Cc1cc(C(F)(F)F)ncc1-c1ccc(C2(C(=O)Nc3ccc(F)cc3)COC2)cc1` was 2.23 µM.

With `O=C(Nc1ccc(F)cc1)C1(c2ccc(-c3cnc(C(F)(F)F)cc3CO)cc2)CC(F)(F)C1`, the IC50 is 6.1 µM. The figure for `CC(C)(O)c1cc(C(F)(F)F)ncc1-c1ccc(C2(C(=O)Nc3ccc(F)cc3)COC2)cc1` is 21.3 µM.
